Columns and labels:
Experiment in all cases: relative viability (nuclei count vs DMSO), 5 days (fraction); higher = more cells survive
[1] = tested on: COR-L 105
Outline: (§1)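 Each reported value is a median over duplicate plates. It expresses relative viability: treated-well nuclei count divided by vehicle-well nuclei count. Lung cancer cell lines in 1536-well plates were dosed by pin tool a day after seeding, alone with one drug or with a fixed anchor-drug dose plus five library-drug doses (not always all listed) in √10 steps, and nuclei were counted after 5 days.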

[2] = tested on: HCC-78
Outline: as §1

[3] = tested on: LCLC-103H
Outline: as §1

[4] = tested on: NCI-H2085
Outline: as §1

[5] = tested on: HCC-15
Outline: as §1

[6] = tested on: EPLC-272H
Outline: as §1

[7] = tested on: NCI-H358
Outline: as §1

[8] = tested on: COR-L23
Outline: as §1

[9] = tested on: NCI-H1944
Outline: as §1

[10] = tested on: NCI-H2405
Outline: as §1

[11] = tested on: NCI-H1437
Outline: as §1

**Q.** Which relative viability ([1]; first compound 5 µM) does the source give for `O=C(O)CCCCC(CCSCc1ccccc1)SCc1ccccc1` (centres undefined) [CPI-613] + Nc1nc2[nH]cc(CCc3ccc(C(=O)N[C@@H](CCC(=O)O)C(=O)O)cc3)c2c(=O)[nH]1 [Pemetrexed] (partner 0.2 µM) here?
**A.** 1.01

**Q.** And the relative viability ([1]; first compound 15.81 µM)?
**A.** 1.02

**Q.** And the relative viability ([1]; first compound 50 µM)?
**A.** 1.15

**Q.** And the relative viability ([1]; first compound 158.11 µM)?
**A.** 0.392

**Q.** And the relative viability ([1]; first compound 500 µM)?
**A.** 0.229

**Q.** And the relative viability ([2]; first compound 15.81 µM)?
**A.** 0.898

**Q.** And the relative viability ([2]; first compound 50 µM)?
**A.** 0.906

**Q.** And the relative viability ([2]; first compound 158.11 µM)?
**A.** 0.874

**Q.** What about the relative viability ([2]; first compound 500 µM) of the same compound?
**A.** 0.913

**Q.** And the relative viability ([3]; first compound 5 µM)?
**A.** 0.514

**Q.** What about the relative viability ([3]; first compound 15.81 µM) of the same compound?
**A.** 0.462

**Q.** What about the relative viability ([3]; first compound 50 µM) of the same compound?
**A.** 0.414

**Q.** And the relative viability ([3]; first compound 158.11 µM)?
**A.** 0.452

**Q.** And the relative viability ([3]; first compound 500 µM)?
**A.** 0.272

**Q.** And the relative viability ([4]; first compound 5 µM)?
**A.** 0.827

**Q.** And the relative viability ([4]; first compound 15.81 µM)?
**A.** 0.672

**Q.** What about the relative viability ([4]; first compound 50 µM) of the same compound?
**A.** 0.82

**Q.** And the relative viability ([4]; first compound 158.11 µM)?
**A.** 0.492

**Q.** What about the relative viability ([4]; first compound 500 µM) of the same compound?
**A.** 0.18

**Q.** And the relative viability ([5]; first compound 5 µM)?
**A.** 0.231

**Q.** And the relative viability ([5]; first compound 15.81 µM)?
**A.** 0.227

**Q.** What about the relative viability ([5]; first compound 50 µM) of the same compound?
**A.** 0.221

**Q.** What about the relative viability ([5]; first compound 158.11 µM) of the same compound?
**A.** 0.155

**Q.** What about the relative viability ([5]; first compound 500 µM) of the same compound?
**A.** 0.0248

**Q.** And the relative viability ([6]; first compound 5 µM)?
**A.** 0.324

**Q.** And the relative viability ([6]; first compound 15.81 µM)?
**A.** 0.289

**Q.** What about the relative viability ([6]; first compound 50 µM) of the same compound?
**A.** 0.318

**Q.** What about the relative viability ([6]; first compound 158.11 µM) of the same compound?
**A.** 0.206

**Q.** And the relative viability ([6]; first compound 500 µM)?
**A.** 0.05

**Q.** What about the relative viability ([7]; first compound 5 µM) of the same compound?
**A.** 0.152

**Q.** What about the relative viability ([7]; first compound 15.81 µM) of the same compound?
**A.** 0.172

**Q.** And the relative viability ([7]; first compound 50 µM)?
**A.** 0.182

**Q.** And the relative viability ([7]; first compound 158.11 µM)?
**A.** 0.156

**Q.** What about the relative viability ([7]; first compound 500 µM) of the same compound?
**A.** 0.0253

**Q.** And the relative viability ([8]; first compound 5 µM)?
**A.** 0.216

**Q.** And the relative viability ([8]; first compound 15.81 µM)?
**A.** 0.197

**Q.** And the relative viability ([8]; first compound 50 µM)?
**A.** 0.192

**Q.** What about the relative viability ([8]; first compound 158.11 µM) of the same compound?
**A.** 0.2

**Q.** What about the relative viability ([8]; first compound 500 µM) of the same compound?
**A.** 0.013

**Q.** What about the relative viability ([9]; first compound 5 µM) of the same compound?
**A.** 0.647

**Q.** What about the relative viability ([9]; first compound 15.81 µM) of the same compound?
**A.** 0.575

**Q.** What about the relative viability ([9]; first compound 50 µM) of the same compound?
**A.** 0.577

**Q.** And the relative viability ([9]; first compound 158.11 µM)?
**A.** 0.339

**Q.** And the relative viability ([9]; first compound 500 µM)?
**A.** 0.408

**Q.** What about the relative viability ([10]; first compound 5 µM) of the same compound?
**A.** 1.04

**Q.** And the relative viability ([10]; first compound 15.81 µM)?
**A.** 0.922

**Q.** And the relative viability ([10]; first compound 50 µM)?
**A.** 0.968

**Q.** What about the relative viability ([10]; first compound 158.11 µM) of the same compound?
**A.** 0.63

**Q.** And the relative viability ([10]; first compound 500 µM)?
**A.** 0.336

**Q.** And the relative viability ([11]; first compound 5 µM)?
**A.** 0.328

**Q.** And the relative viability ([11]; first compound 15.81 µM)?
**A.** 0.295

**Q.** And the relative viability ([11]; first compound 50 µM)?
**A.** 0.301

**Q.** And the relative viability ([11]; first compound 158.11 µM)?
**A.** 0.0937

**Q.** And the relative viability ([11]; first compound 500 µM)?
**A.** 0.0871

Reference: the supplement of paper PMC10307832
